Assay results published in patent publication US20160296499A1, “Spiroindoline Antiparasitic Derivatives” (ZOETIS SERVICES LLC, priority 2013, published 2016).
Where two headings read alike, the source gives them in different places.

Assays:
Haemonchus contortus L3 = test: Haemonchus contortus, Larvae Stage 3 (HcL3) In Vitro Assay; details: Haemonchus contortus
[1] = tested on: Dirofilaria immitis microfilariae; test: Dirofilaria immitis, Microfilariae (DiMF) In Vitro Assay; details: Dirofilaria immitis
[2] = biological target: T1, bovine vesicular acetylcholine transporter (VAChT) (Bos taurus, UniProt E1BK36); test: Radioligand Binding Assay; details: Bovine binding Ki, CHO-K1 membranes with recombinant bovine VAChT, [3H]Compound X6 0.3 nM
T1 sequence (E1BK36 1-524): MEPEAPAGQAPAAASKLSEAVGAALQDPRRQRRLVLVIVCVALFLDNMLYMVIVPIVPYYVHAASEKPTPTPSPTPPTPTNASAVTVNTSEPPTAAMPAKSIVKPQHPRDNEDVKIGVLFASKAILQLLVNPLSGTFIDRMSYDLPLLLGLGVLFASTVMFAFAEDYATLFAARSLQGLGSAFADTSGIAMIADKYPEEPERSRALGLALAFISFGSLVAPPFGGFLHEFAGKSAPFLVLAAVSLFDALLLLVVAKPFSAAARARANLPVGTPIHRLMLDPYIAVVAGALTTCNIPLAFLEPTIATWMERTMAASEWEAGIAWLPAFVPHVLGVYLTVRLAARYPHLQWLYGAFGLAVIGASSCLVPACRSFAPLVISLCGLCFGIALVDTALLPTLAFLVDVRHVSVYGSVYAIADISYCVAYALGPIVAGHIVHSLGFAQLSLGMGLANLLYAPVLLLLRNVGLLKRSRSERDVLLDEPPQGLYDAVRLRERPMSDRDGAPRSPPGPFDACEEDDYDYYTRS
Procedure: To measure binding affinity, CHO-K1 cells recombinantly expressing the bovine VAChT was generated as a stable cell line and subsequently used to produce membrane preparations.
Radioligand binding assays were conducted in disposable polypropylene 96-well plates. VAChT competition assays were initiated by the addition of bovine recombinant membrane homogenate (50 μg/well) in assay buffer (50 mM Tris-HCl, 120 mM NaCl, 5 mM KCl, 1 mM MgCl, and 2 mM CaCl, pH 7.4) containing [^3H]Compound X6 (0.3 nM) with or without competing ligand. The assay was allowed to equilibrate for 120 minutes at room temperature, before being filtered onto GF/C unifilter plates pre-coated in 0.3% polyethylenimine (Perkin Elmer Life and Analytical Sciences, Boston, Mass.) with a Filtermate 96 harvester (PerkinElmer Life and Analytical Sciences). Filters were washed in ice-cold 50 mM Tris-HCl, pH 7.4 buffer and then counted for radioactivity in a TopCount microplate scintillation counter after addition of 50 μL Microscint 20 (PerkinElmer). Non-specific binding was measured in the presence of 10 μM Compound X6. Apparent dissociation constants (Ki values) from the competition experiments were calculated using an iterative nonlinear regression curve-fitting program (GraphPAD Prism 6.0 Software, San Diego, Calif.) and are reported in Table 2.

[3] = 96 h, read-out: HcL3 MEC, Minimal Effective Concentration whereby worm motility is inhibited by approximately 70%, 37° C., tested 0.001-100 μM
[4] = 72 h, read-out: Di MF, MEC, decrease in microfilariae motility by visual assessment, curve starting at 100 μM
[5] = 96 hours, 37° C., read-out: HcL3 MEC

| Structure (SMILES) | minimal effective concentration (Haemonchus contortus L3; [3]) [µM] | minimal effective concentration [1, 4] [µM] | Ki [2] [nM] | minimal effective concentration (Haemonchus contortus L3; [5]) [µM] | minimal effective concentration ([1]; 72 hours, read-out: Di MF) [µM] |
| --- | --- | --- | --- | --- | --- |
| O=C(NCc1ccnc(F)c1)N1CC2(CCN(C/C=C/c3ccc(F)cc3)CC2)c2ccc(OC(F)(F)F)cc21 [Example 100, (E)-1′-(3-(4-fluorophenyl)allyl)-N-((2-fluoropyridin-4-yl)methyl)-6-(trifluoromethoxy)spiro[indoline-3,4′-piperidine]-1-carboxamide] | 3.3 | 10 | 121 |  |  |
| N#Cc1cc2c(cn1)N(C(=O)NCc1ccnc(Cl)c1)CC21CCN(C/C=C/c2ccc(Cl)c(Cl)c2)CC1 [Example 66, (E)-N-((2-chloropyridin-4-yl)methyl)-5′-cyano-1-(3-(3,4-dichlorophenyl)allyl)spiro[piperidine-4,3′-pyrrolo[2,3-c]pyridine]-1′(2′H)-carboxamide] | 1.8 | 10 | 24.1 |  |  |
| O=C(NCc1cncs1)N1CC2(CCN(C/C=C/c3ccc(Cl)c(Cl)c3)CC2)c2c1ccc1scnc21 [Example 22, (E)-1-(3-(3,4-dichlorophenyl)allyl)-N-(thiazol-5-ylmethyl)spiro[piperidine-4,8′-thiazolo[4,5-e]indole]-6′(7′H)-carboxamide] | 100 | 10 | 131 |  |  |
| O=C(NCc1ccnc(Cl)c1)N1CC2(CCN(C/C=C/c3ccc(OC(F)(F)F)cc3)CC2)c2cc(C(F)(F)F)ccc21 [Example 172, (E)-N-((2-chloropyridin-4-yl)methyl)-1′-(3-(4-(trifluoromethoxy)phenyl)allyl)-5-(trifluoromethyl)spiro[indoline-3,4′-piperidine]-1-carboxamide] | 100 | 5.7 | 921 |  |  |
| COc1ccc(/C=C/CN2CCC3(CC2)CN(C(=O)NCc2ccnc(Cl)c2)c2ccc4c(cnn4C)c23)cc1 [Example 54, (E)-N-((2-chloropyridin-4-yl)methyl)-1-(3-(4-methoxyphenyl)allyl)-3′-methyl-3′H-spiro[piperidine-4,8′-pyrrolo[3,2-e]indazole]-6′(7′H)-carboxamide] | > 100 | 33 | 1400 |  |  |
| O=C(NCc1ccnc(Cl)c1)N1CC2(CCN(C/C=C/c3ccc(Cl)c(Cl)c3)CC2)c2c1ccc1c2OCCO1 [Example 11, (E)-N-((2-chloropyridin-4-yl)methyl)-1-(3-(3,4-dichlorophenyl)allyl)-2′,3′-dihydrospiro[piperidine-4,9′-[1,4]dioxino[2,3-e]indole]-7′(8′H)-carboxamide] | 100 | 10 | 178 |  |  |
| O=C(NCc1ccnc(F)c1)N1CC2(CCN(C/C=C/c3ccc(C(F)(F)F)cc3)CC2)c2cc(Cl)ccc21 [Example 184, (E)-5-chloro-N-((2-fluoropyridin-4-yl)methyl)-1′-(3-(4-(trifluoromethyl)phenyl)allyl)spiro[indoline-3,4′-piperidine]-1-carboxamide] | 3.3 | 3.3 | 224 |  |  |
| O=C(NCc1ccnc(F)c1)N1CC2(CCN(C/C=C/c3ccc(Cl)cc3)CC2)c2c(OC(F)(F)F)cccc21 [Example 94, (E)-1′-(3-(4-chlorophenyl)allyl)-N-((2-fluoropyridin-4-yl)methyl)-4-(trifluoromethoxy)spiro[indoline-3,4′-piperidine]-1-carboxamide] | 100 | 3.3 | 3930 |  |  |
| O=C(NCC1CC1)N1CC2(CCN(C/C=C/c3ccc(Cl)c(Cl)c3)CC2)c2c1ccc1scnc21 [Example 32, (E)-N-(cyclopropylmethyl)-1-(3-(3,4-dichlorophenyl)allyl)spiro[piperidine-4,8′-thiazolo[4,5-e]indole]-6′(7′H)-carboxamide] | 100 | 3.3 | 136 |  |  |
| CC1(C)Oc2cc3c(cc2O1)C1(CCN(C/C=C/c2ccc(Cl)cc2)CC1)CN3C(=O)NCc1ccnc(Cl)c1 [Example 8, (E)-1-(3-(4-chlorophenyl)allyl)-N-((2-chloropyridin-4-yl)methyl)-2′,2′-dimethylspiro[piperidine-4,7′-[1,3]dioxolo[4,5-f]indole]-5′(6′H)-carboxamide] |  |  | 1520 | 100 | 10 |
| O=C(NCc1ccnc(Cl)c1)N1CC2(CCN(C/C=C/c3ccc(C(F)(F)F)cc3)CC2)c2c1cccc2C(F)(F)F [Example 152, (E)-N-((2-chloropyridin-4-yl)methyl)-4-(trifluoromethyl)-1′-(3-(4-(trifluoromethyl)phenyl)allyl)spiro[indoline-3,4′-piperidine]-1-carboxamide] | 5.7 | 4.4 | 1320 |  |  |
| O=C(NCc1ccnc(F)c1)N1CC2(CCN(C/C=C/c3ccc(Cl)cc3)CC2)c2c1cc(Cl)c(F)c2Cl [Example 61, (E)-4,6-dichloro-1′-(3-(4-chlorophenyl)allyl)-5-fluoro-N-((2-fluoropyridin-4-yl)methyl)spiro[indoline-3,4′-piperidine]-1-carboxamide] | 100 | 10 | 671 |  |  |
| O=C(NCc1ccnc(F)c1)N1CC2(CCN(C/C=C/c3ccc(Cl)cc3)CC2)c2c(-c3ccccc3)cccc21 [Example 91, (E)-1′-(3-(4-chlorophenyl)allyl)-N-((2-fluoropyridin-4-yl)methyl)-4-phenylspiro[indoline-3,4′-piperidine]-1-carboxamide] | 100 | 3.3 | 295 |  |  |
| Cc1cccc2c1C1(CCN(C/C=C/c3ccc(Cl)c(Cl)c3)CC1)CN2C(=O)NCc1ccnc(F)c1 [Example 114, 1′-[(E)-3-(3,4-dichlorophenyl)allyl]-N-[(2-fluoro-4-pyridyl)methyl]-4-methyl-spiro[indoline-3,4′-piperidine]-1-carboxamide] | 5.7 | 10 | 241 |  |  |
| O=C(NCc1ccnc(Cl)c1)N1CC2(CCN(C/C=C/c3ccc(Cl)c(Cl)c3)CC2)c2cc(Cl)cc(Cl)c21 [Example 171, (E)-5,7-dichloro-N-((2-chloropyridin-4-yl)methyl)-1′-(3-(3,4-dichlorophenyl)allyl)spiro[indoline-3,4′-piperidine]-1-carboxamide] |  |  | 20.9 | 69.1 | 7.6 |
| CS(=O)(=O)c1ccc2c(c1)C1(CCN(C/C=C/c3ccc(Cl)cc3)CC1)CN2C(=O)NCc1ccnc(Cl)c1 [Example 79, (E)-1′-(3-(4-chlorophenyl)allyl)-N-((2-chloropyridin-4-yl)methyl)-5-(methylsulfonyl)spiro[indoline-3,4′-piperidine]-1-carboxamide] | 100 | 10 | 11300 |  |  |
| Cc1noc(C)c1-c1ccc2c(c1)C1(CCN(C/C=C/c3ccc(Cl)cc3)CC1)CN2C(=O)NCc1ccnc(Cl)c1 [Example 187, (E)-1′-(3-(4-chlorophenyl)allyl)-N-((2-chloropyridin-4-yl)methyl)-5-(3,5-dimethylisoxazol-4-yl)spiro[indoline-3,4′-piperidine]-1-carboxamide] |  |  | 2470 | 100 | 3.3 |
| O=C(NCc1ccnc(C(F)(F)F)c1)N1CC2(CCN(C/C=C/c3ccc(C(F)(F)F)cc3)CC2)c2cc(OC(F)(F)F)ccc21 [Example 177, (E)-5-(trifluoromethoxy)-1′-(3-(4-(trifluoromethyl)phenyl)allyl)-N-((2-(trifluoromethyl)pyridin-4-yl)methyl)spiro[indoline-3,4′-piperidine]-1-carboxamide] | 100 | 3.3 | 1670 |  |  |
| O=C(NCc1ccnc(F)c1)N1CC2(CCN(C/C=C/c3ccc(Cl)cc3)CC2)c2c1ccc(F)c2Cl [Example 63, (E)-4-chloro-1′-(3-(4-chlorophenyl)allyl)-5-fluoro-N-((2-fluoropyridin-4-yl)methyl)spiro[indoline-3,4′-piperidine]-1-carboxamide] | 8.2 | 5.7 | 182 |  |  |
| O=C(NCc1ccnc(C(F)(F)F)c1)N1CC2(CCN(C/C=C/c3ccc(OC(F)(F)F)cc3)CC2)c2cc(OC(F)(F)F)ccc21 [Example 178, (E)-5-(trifluoromethoxy)-1′-(3-(4-(trifluoromethoxy)phenyl)allyl)-N-((2-(trifluoromethyl)pyridin-4-yl)methyl)spiro[indoline-3,4′-piperidine]-1-carboxamide] | 100 | 3.3 | 760 |  |  |
